Results reported in patent US8389557B2, “Triazole derivatives useful as Axl inhibitors” (Rigel Pharmaceuticals, Inc., priority 2005, dated 2013).

Target: T1, Axl (Homo sapiens, UniProt P30530)
T1 construct: endogenous in cells; host or cells: HeLa cells
T1 sequence (P30530 26-894): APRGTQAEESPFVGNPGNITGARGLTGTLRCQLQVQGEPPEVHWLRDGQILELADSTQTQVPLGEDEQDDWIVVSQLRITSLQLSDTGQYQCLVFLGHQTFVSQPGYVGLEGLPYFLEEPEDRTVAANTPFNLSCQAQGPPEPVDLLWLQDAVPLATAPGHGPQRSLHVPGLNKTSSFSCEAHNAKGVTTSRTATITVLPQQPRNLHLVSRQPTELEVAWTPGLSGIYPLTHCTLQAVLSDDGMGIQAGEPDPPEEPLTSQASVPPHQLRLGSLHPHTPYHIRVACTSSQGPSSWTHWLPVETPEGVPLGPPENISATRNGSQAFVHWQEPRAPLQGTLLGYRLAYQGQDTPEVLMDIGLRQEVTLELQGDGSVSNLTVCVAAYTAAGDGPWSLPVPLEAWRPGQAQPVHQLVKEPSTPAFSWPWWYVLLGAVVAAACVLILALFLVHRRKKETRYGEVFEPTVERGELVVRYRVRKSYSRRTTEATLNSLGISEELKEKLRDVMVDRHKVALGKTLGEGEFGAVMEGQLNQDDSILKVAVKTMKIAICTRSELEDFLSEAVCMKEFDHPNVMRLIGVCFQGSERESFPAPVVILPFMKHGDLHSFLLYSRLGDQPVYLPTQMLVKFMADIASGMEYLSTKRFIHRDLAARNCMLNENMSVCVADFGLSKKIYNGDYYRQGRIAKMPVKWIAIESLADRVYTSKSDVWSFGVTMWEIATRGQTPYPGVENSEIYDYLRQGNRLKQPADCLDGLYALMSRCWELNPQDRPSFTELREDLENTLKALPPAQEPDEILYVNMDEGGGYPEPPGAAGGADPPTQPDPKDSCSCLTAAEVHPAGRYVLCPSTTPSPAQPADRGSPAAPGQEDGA
Test: Phospho-Akt in-cell Western assay (inhibition of Axl activity)
Type: cell-based
How it was run: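 HeLa cells on poly-L-lysine, starved 24 h in 0.5% FCS DMEM with Axl/Fc 500 ng/mL, pre-treated with compound 1 h at 37° C. Axl stimulated 5 min by anti-Axl/anti-mouse antibody cross-linking. Fixed cells probed with anti-phospho-Akt and HRP secondary, chemiluminescence read.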

[1] = Table 5, Hela cells, Axl antibody cross-linking stimulation, phospho-Akt chemiluminescence
[2] = inhibition of Axl activity, Table 1
[3] = Table 3, Hela cells, Axl antibody cross-linking stimulation, phospho-Akt chemiluminescence
[4] = inhibition of Axl activity, phospho-Akt in-cell Western assay, Table 1

## Cc1cccc(C(=O)n2nc(Nc3nc4ccccc4s3)nc2N)c1 [compound 256, 5-amino-3-(benzothiazol-2-yl)amino-1-(3-methylphenyl)carbonyl-1H-1,2,4-triazole]
[1]
  IC50: > 20 µM

## COc1ccc(C(=O)n2nc(Nc3ccc4c(c3)OCCO4)nc2N)cc1C [compound 257, 5-amino-3-(1,4-benzodioxan-6-yl)amino-1-(3-methyl-4-methoxy)phenylcarbonyl-1H-1,2,4-triazole]
[2]
  IC50: 1 to 10 µM

## Cc1cc(C(=O)n2nc(Nc3ccc4c(c3)OCCO4)nc2N)ccc1OC(C)C [compound 258, 5-amino-3-(1,4-benzodioxan-6-yl)amino-1-(3-methyl-4-iso-propoxy)phenylcarbonyl-1H-1,2,4-triazole]
[2]
  IC50: 1 to 10 µM

## Cc1cccc(C(=O)n2nc(Nc3ccc4sncc4c3)nc2N)c1 [compound 259, 5-amino-3-(1,2-benzisothiazol-5-yl)amino-1-(3-methylphenyl)carbonyl-1H-1,2,4-triazole]
[1]
  IC50: > 20 µM

## Cc1cccc(C(=O)n2nc(Nc3ccc4snc(C)c4c3)nc2N)c1 [compound 260, 5-amino-3-(3-methyl-1,2-benzisothiazol-5-yl)amino-1-(3-methylphenyl)carbonyl-1H-1,2,4-triazole]
[1]
  IC50: > 20 µM

## CC(=O)n1nc(Nc2ccc3c(c2)OCCO3)nc1N [compound 261, 1-Acetyl-5-amino-3-(1,4-benzodioxan-6-yl)amino-1H-1,2,4-triazole]
[3]
  IC50: > 20 µM

## Nc1nc(Nc2ccc(OCCN3CCCC3)c(F)c2)nn1C(=O)c1ccc(N2CCOCC2)cc1 [compound 262, 5-amino-3-[4-[2-(pyrrolidin-1-yl)ethoxy]-3-fluorophenyl]amino-1-[4-(morpholin-4-yl)phenyl]carbonyl-1H-1,2,4-triazole]
[4]
  IC50: < 1 µM

## CC(C)(C)c1ccc(C(=O)n2nc(Nc3cccc(-c4cnco4)c3)nc2N)cc1 [compound 263, 5-amino-1-(4-(tert-butyl)phenyl)carbonyl-3-[3-(1,3-oxazol-5-yl)phenylamino]-1H-1,2,4-triazole]
[4]
  IC50: 1 to 10 µM

## CC(C)(C)Oc1ccc(C(=O)n2nc(Nc3cccc(-c4cnco4)c3)nc2N)cc1 [compound 264, 5-amino-1-(4-(tert-butoxy)phenyl)carbonyl-3-[3-(1,3-oxazol-5-yl)phenylamino]-1H-1,2,4-triazole]
[4]
  IC50: 1 to 10 µM

## Nc1nc(Nc2ccc(OCCN3CCOCC3)cc2)nn1C(=O)c1ccc2cc[nH]c2c1 [compound 265, 5-amino-1-(1H-indol-6-yl)carbonyl-3-[4-[2-(morpholin-4-yl)ethoxy]phenylamino]-1H-1,2,4-triazole]
[3]
  IC50: < 1 µM

## CC(C)(C)c1ccc(C(=O)n2nc(Nc3ccc(OCCN4CCOCC4)cc3)nc2N)cc1 [compound 266, 5-amino-1-(4-(tert-butyl)phenyl)carbonyl-3-[4-[2-(morpholin-4-yl)ethoxy]phenylamino]-1H-1,2,4-triazole]
[4]
  IC50: < 1 µM

## CC(C)(C)Oc1ccc(C(=O)n2nc(Nc3ccc(OCCN4CCOCC4)cc3)nc2N)cc1 [compound 267, 5-amino-1-(4-(tert-butoxy)phenyl)carbonyl-3-[4-[2-(morpholin-4-yl)ethoxy]phenylamino]-1H-1,2,4-triazole]
[4]
  IC50: < 1 µM

## Nc1nc(Nc2ccc(OCCN3CCCC3)cc2)nn1C(=O)c1ccc(-n2ccnc2)cc1 [compound 268, 5-amino-1-(4-(imidazol-1-yl)phenyl)carbonyl-3-[4-[2-(pyrrolidin-1-yl)ethoxy]phenylamino]-1H-1,2,4-triazole]
[4]
  IC50: < 1 µM

## Nc1nc(Nc2ccc(OCCN3CCCC3)cc2)nn1C(=O)c1ccc(Oc2ccccc2)cc1 [compound 269, 5-amino-1-(4-(phenoxy)phenyl)carbonyl-3-[4-[2-(pyrrolidin-1-yl)ethoxy]phenylamino]-1H-1,2,4-triazole]
[4]
  IC50: < 1 µM

## CC(C)(C)OC(=O)Nc1ccc(C(=O)n2nc(Nc3ccc(OCCN4CCCC4)cc3)nc2N)cc1 [compound 270, 5-amino-1-(4-(tert-butoxycarbonylamino)phenyl)carbonyl-3-[4-[2-(pyrrolidin-1-yl)ethoxy]phenylamino]-1H-1,2,4-triazole]
[4]
  IC50: < 1 µM

## Nc1nc(Nc2ccc(OCCN3CCCC3)cc2)nn1C(=O)c1ccc2ncsc2c1 [compound 271, 5-amino-1-(benzo[d]thiazol-6-yl)carbonyl-3-[4-[2-(pyrrolidin-1-yl)ethoxy]phenylamino]-1H-1,2,4-triazole]
[3]
  IC50: 1 to 10 µM

## CN(c1ccc(OCCN2CCCC2)cc1)c1nc(N)n(C(=O)c2ccc(OC(C)(C)C)cc2)n1 [compound 272, 5-amino-1-(4-(tert-butoxy)phenyl)carbonyl-3-[4-[2-(pyrrolidin-1-yl)ethoxy]phenyl][methyl]amino-1H-1,2,4-triazole]
[4]
  IC50: > 20 µM

## CC(C)(C)OC(=O)NC1CCOc2ccc(Nc3nc(N)n(C(=O)c4ccc(C(C)(C)C)cc4)n3)cc21 (centres unmarked) [compound 273]
[1]
  IC50: > 20 µM

## CC(C)Oc1ccc(C(=O)n2nc(Nc3ccc4c(c3)C(NC(=O)OC(C)(C)C)CCO4)nc2N)cc1 (centres unmarked) [compound 274]
[1]
  IC50: > 20 µM

## CC(C)(C)OC(=O)NC1CCOc2ccc(Nc3nc(N)n(C(=O)c4ccc(OC(C)(C)C)cc4)n3)cc21 (centres unmarked) [compound 275]
[1]
  IC50: > 20 µM

## CC(C)(C)OC(=O)NC1CCOc2ccc(Nc3nc(N)n(C(=O)c4ccc5cc[nH]c5c4)n3)cc21 (centres unmarked) [compound 276]
Table 9, Hela cells, Axl antibody cross-linking stimulation, phospho-Akt chemiluminescence
  IC50: 1 to 10 µM

## Nc1nc(Nc2ccc(OCCN3CCCC3)cc2)nn1C(=O)c1ccc(-c2ccccc2)cc1 [compound 277, 5-amino-1-(4-(phenyl)phenyl)carbonyl-3-[4-[2-(pyrrolidin-1-yl)ethoxy]phenylamino]-1H-1,2,4-triazole]
[4]
  IC50: < 1 µM

## CC(C)(C)OC(=O)NCc1ccc(C(=O)n2nc(Nc3ccc(OCCN4CCCC4)cc3)nc2N)cc1 [compound 278, 5-amino-1-[4-((tert-butoxycarbonyl)aminomethyl)phenyl]carbonyl-3-[4-[2-(pyrrolidin-1-yl)ethoxy]phenylamino]-1H-1,2,4-triazole]
[4]
  IC50: < 1 µM

## Nc1nc(Nc2ccc(OCCN3CCCC3)cc2)nn1C(=O)c1ccc(-c2csnn2)cc1 [compound 280, 5-amino-1-(4-(1,2,3-thiadiazol-4-yl)phenyl)carbonyl-3-[4-[2-(pyrrolidin-1-yl)ethoxy]phenylamino]-1H-1,2,4-triazole]
[4]
  IC50: < 1 µM

## Nc1nc(Nc2ccc(OCCN3CCCC3)cc2)nn1C(=O)c1ccc2nn[nH]c2c1 [compound 281, 5-amino-1-(1H-benzo[d][1,2,3]triazol-5-yl)carbonyl-3-[4-[2-(pyrrolidin-1-yl)ethoxy]phenylamino]-1H-1,2,4-triazole]
[3]
  IC50: 10 to 20 µM

## Nc1nc(Nc2ccc(OCCN3CCCC3)cc2)nn1C(=O)c1ccc(-n2cccc2)cc1 [compound 282, 5-amino-1-(4-(pyrrol-1-yl)phenyl)carbonyl-3-[4-[2-(pyrrolidin-1-yl)ethoxy]phenylamino]-1H-1,2,4-triazole]
[4]
  IC50: < 1 µM

## Cc1ccsc1C(=O)n1nc(Nc2ccc(OCCN3CCCC3)cc2)nc1N [compound 283, 5-amino-1-(3-methylthien-2-yl)carbonyl-3-[4-[2-(pyrrolidin-1-yl)ethoxy]phenylamino]-1H-1,2,4-triazole]
[3]
  IC50: < 1 µM

## Cc1ccc(C(=O)n2nc(Nc3ccc(OCCN4CCCC4)cc3)nc2N)s1 [compound 284, 5-amino-1-(5-methylthien-2-yl)carbonyl-3-[4-[2-(pyrrolidin-1-yl)ethoxy]phenylamino]-1H-1,2,4-triazole]
[3]
  IC50: < 1 µM

## Nc1nc(Nc2ccc(OCCN3CCCC3)cc2)nn1C(=O)c1cccs1 [compound 285, 5-amino-1-(thien-2-yl)carbonyl-3-[4-[2-(pyrrolidin-1-yl)ethoxy]phenylamino]-1H-1,2,4-triazole]
[3]
  IC50: < 1 µM

## CNc1ccc(C(=O)n2nc(Nc3ccc(OCCN4CCCC4)cc3)nc2N)cc1 [compound 286, 5-amino-1-(4-(methylamino)phenyl)carbonyl-3-[4-[2-(pyrrolidin-1-yl)ethoxy]phenylamino]-1H-1,2,4-triazole]
[4]
  IC50: < 1 µM

## CSc1ccc(C(=O)n2nc(Nc3ccc(OCCN4CCCC4)cc3)nc2N)cc1 [compound 287, 5-amino-1-(4-(methylthio)phenyl)carbonyl-3-[4-[2-(pyrrolidin-1-yl)ethoxy]phenylamino]-1H-1,2,4-triazole]
[4]
  IC50: < 1 µM

## Nc1nc(Nc2ccc(OCCN3CCCC3)cc2)nn1C(=O)c1ccc2ncccc2c1 [compound 288, 5-amino-1-(quinolin-6-yl)carbonyl-3-[4-[2-(pyrrolidin-1-yl)ethoxy]phenylamino]-1H-1,2,4-triazole]
[3]
  IC50: < 1 µM
